# Experimental data published in patent US10506810B2, “Synergistic herbicidal composition” (QINGDAO KINGAGROOT RESISTANT WEED MANAGEMENT CO., LTD., priority 2015, dated 2019).
# Tests used:
# [1] = test system: Capsella bursa-pastoris; assay: pot-culture method, stem and leaf treatment in greenhouse, fresh weight inhibition rate 20 days after treatment (Gowing method); type: in vivo
# Procedure: (§1) Capsella bursa-pastoris, Myosoton aquaticum, Alopecurus japonicus were collected from corn fields in Huangdao Experimental Base of Shandong Province.
# (§2) The above weeds were cultivated by a pot culture method. […] Full and uniform weed seeds were selected, soaked in warm water at 25° C. for 6 hours, and germinated in a 28° C. biochemical incubator (darkness). […] A certain amount of water was added to the enamel pan regularly to keep the soil moist.
# (§3) The technical materials were all dissolved in acetone, and diluted with an aqueous solution containing 0.1% emulsifier T-80. The dilution is performed as required.
# (§4) A ratio of the active ingredient A to the active ingredient B and amounts thereof in each group depends on the characteristics and toxicity of the two agents, as well as the main application purpose of a corresponding formulation. Based on the pre-tests in this study, the dosage of the active ingredient A and the active ingredient B applied alone and in combination were shown in the tables, and a total 15 groups were designed. Water containing the solvent and emulsifier same with the above groups but free of the agents was used as a blank control.
# (§5) 3 pots with 20 weed seeds per pot were treated in one treatment with […] per treatment, that is, a total of 60 weeds were treated in one treatment.
# (§6) The agents were used for only once in the experiment. In the stage of weeds with 2 leaves and 1 core, the weeds were thinned out to maintain 15 weeds per pot and 45 weeds for each treatment, then continued to be cultured to 3-5-leaves stage of Capsella bursa-pastoris and Myosoton aquaticum, and 3-leaves and 1-core stage of Alopecurus japonicus, and treated.
# (§7) The well-cultured weeds were evenly placed on a platform with an area of 0.5 m^2, and a solution of agents was sprayed on the stems and leaves thereof by the 3WP-2000-type walking spray tower at a dosage of 30 kg/ha and at a spray pressure of 0.3 MPa. After all the solution was sprayed, the valve was closed. After 30 seconds, the door of the spray tower was opened, and the nutritional bowl was taken out. Then the valve was opened, and the spray tube was cleaned by spraying 50 ml of water.
# (§8) A pot-culture method was employed. For the cultivation of weeds, please refer to the Section 1.2, and “Pesticide guidelines for laboratory bioactivity tests—herbicides”. As to a method for applying agents, please refer to the section 2.3.2, that is, a method for treating stems and leaves was employed.
# (§9) A method for investigating absolute number was employed, wherein whole seedlings of survival weeds were cut off with a blade along the soil surface, and the fresh weight of the weeds was weighed with an analytical balance. For dead weeds, the fresh weight thereof was zero.
# (§10) The investigation was performed after 20 days of the treatment for only once.
# (§11) Wherein, in the formula, X represented the fresh weight inhibition rate of the active ingredient A in a dosage of P, and Y represented the fresh weight inhibition rate of the active ingredient B in a dosage of Q.
# [2] = test system: Myosoton aquaticum; assay: as above; type: in vivo
# Procedure: as §1, §2, §3, §4, §5, §6, §7, §8, §9, §10, §11
smiles,measurement,setting,value
"CC(C)CCCCCOC(=O)COc1ccc(Cl)cc1Cl [2,4-D isooctyl ester, reference compound]",actual fresh weight inhibition rate (%),[1]; dosage 200 g/hm^2,21.1%
same,actual fresh weight inhibition rate (%),[1]; dosage 350 g/hm^2,34.2%
same,actual fresh weight inhibition rate (%),[1]; dosage 500 g/hm^2,55.9%
same,actual fresh weight inhibition rate (%),[2]; dosage 200 g/hm^2,15.4%
same,actual fresh weight inhibition rate (%),[2]; dosage 350 g/hm^2,26.3%
same,actual fresh weight inhibition rate (%),[2]; dosage 500 g/hm^2,47.9%
"CCCCOC(=O)COc1ccc(Cl)cc1Cl [2,4-butyl ester, 2,4-D butyl ester, reference compound]",actual fresh weight inhibition rate (%),[1]; dosage 200 g/hm^2,23.4%
same,actual fresh weight inhibition rate (%),[1]; dosage 350 g/hm^2,42.9%
same,actual fresh weight inhibition rate (%),[1]; dosage 500 g/hm^2,55.6%
same,actual fresh weight inhibition rate (%),[2]; dosage 200 g/hm^2,18.4%
same,actual fresh weight inhibition rate (%),[2]; dosage 350 g/hm^2,29.8%
same,actual fresh weight inhibition rate (%),[2]; dosage 500 g/hm^2,49.3%
N#Cc1cc(Br)c(O)c(Br)c1 [Bromoxynil],pest or weed control at 240 g/ha,"[1]; Capsella bursa-pastoris, 480 h, dosage 240 g/hm^2, read-out: actual fresh weight inhibition rate",40.6%
same,pest or weed control at 360 g/ha,"[1]; Capsella bursa-pastoris, 480 h, dosage 360 g/hm^2, read-out: actual fresh weight inhibition rate",58.5%
same,pest or weed control at 480 g/ha,"[1]; Capsella bursa-pastoris, 480 h, dosage 480 g/hm^2, read-out: actual fresh weight inhibition rate",81.3%
same,pest or weed control at 240 g/ha,"[2]; Myosoton aquaticum, 480 h, dosage 240 g/hm^2, read-out: actual fresh weight inhibition rate",30.5%
same,pest or weed control at 360 g/ha,"[2]; Myosoton aquaticum, 480 h, dosage 360 g/hm^2, read-out: actual fresh weight inhibition rate",38.7%
same,pest or weed control at 480 g/ha,"[2]; Myosoton aquaticum, 480 h, dosage 480 g/hm^2, read-out: actual fresh weight inhibition rate",47.9%
"Cc1cc(Cl)ccc1OCC(=O)O [MCPA, 2-methyl-4-chlorophenoxy acetic acid, reference compound]",actual fresh weight inhibition rate (%),[1]; dosage 300 g/hm^2,33.2%
same,actual fresh weight inhibition rate (%),[1]; dosage 600 g/hm^2,41.7%
same,actual fresh weight inhibition rate (%),[1]; dosage 900 g/hm^2,60.5%
same,actual fresh weight inhibition rate (%),[2]; dosage 300 g/hm^2,23.8%
same,actual fresh weight inhibition rate (%),[2]; dosage 600 g/hm^2,35.6%
same,actual fresh weight inhibition rate (%),[2]; dosage 900 g/hm^2,45.8%
"Cc1cc(Cl)ccc1OCC(=O)[O-].[Na+] [MCPA-Na, reference compound]",actual fresh weight inhibition rate (%),[1]; dosage 400 g/hm^2,22.1%
same,actual fresh weight inhibition rate (%),[1]; dosage 800 g/hm^2,38.3%
same,actual fresh weight inhibition rate (%),[1]; dosage 1200 g/hm^2,56.7%
same,actual fresh weight inhibition rate (%),[2]; dosage 400 g/hm^2,24.8%
same,actual fresh weight inhibition rate (%),[2]; dosage 800 g/hm^2,36.9%
same,actual fresh weight inhibition rate (%),[2]; dosage 1200 g/hm^2,50.9%
"Cc1cc(Cl)ccc1OCC(=O)OCCCCCC(C)C [MCPA-isooctyl, reference compound]",actual fresh weight inhibition rate (%),[1]; dosage 600 g/hm^2,33.2%
same,actual fresh weight inhibition rate (%),[1]; dosage 1200 g/hm^2,41.7%
same,actual fresh weight inhibition rate (%),[1]; dosage 1800 g/hm^2,60.5%
same,actual fresh weight inhibition rate (%),[2]; dosage 600 g/hm^2,23.8%
same,actual fresh weight inhibition rate (%),[2]; dosage 1200 g/hm^2,35.6%
same,actual fresh weight inhibition rate (%),[2]; dosage 1800 g/hm^2,45.8%
CC(C)N1C(=O)c2ccccc2NS1(=O)=O [bentazon],pest or weed control at 500 g/ha,"[1]; 480 h, Capsella bursa-pastoris, 500 g/hm^2, read-out: actual fresh weight inhibition rate",38.5%
same,pest or weed control at 750 g/ha,"[1]; 480 h, Capsella bursa-pastoris, 750 g/hm^2, read-out: actual fresh weight inhibition rate",58.2%
same,pest or weed control at 1000 g/ha,"[1]; 480 h, Capsella bursa-pastoris, 1000 g/hm^2, read-out: actual fresh weight inhibition rate",73.1%
same,pest or weed control at 500 g/ha,"[2]; Myosoton aquaticum, 480 h, Myosoton aquaticum, 500 g/hm^2, read-out: actual fresh weight inhibition rate",33.4%
same,pest or weed control at 750 g/ha,"[2]; Myosoton aquaticum, 480 h, Myosoton aquaticum, 750 g/hm^2, read-out: actual fresh weight inhibition rate",46.2%
same,pest or weed control at 1000 g/ha,"[2]; Myosoton aquaticum, 480 h, Myosoton aquaticum, 1000 g/hm^2, read-out: actual fresh weight inhibition rate",58.7%
CCCCCCCC(=O)Oc1c(Br)cc(C#N)cc1Br [bromoxynil octanoate],pest or weed control at 190 g/ha,"[1]; Capsella bursa-pastoris, 480 h, dosage 190 g/hm^2, read-out: actual fresh weight inhibition rate",42.7%
same,pest or weed control at 375 g/ha,"[1]; Capsella bursa-pastoris, 480 h, dosage 375 g/hm^2, read-out: actual fresh weight inhibition rate",55.7%
same,pest or weed control at 560 g/ha,"[1]; Capsella bursa-pastoris, 480 h, dosage 560 g/hm^2, read-out: actual fresh weight inhibition rate",78.6%
same,pest or weed control at 190 g/ha,"[2]; Myosoton aquaticum, 480 h, dosage 190 g/hm^2, read-out: actual fresh weight inhibition rate",25.8%
same,pest or weed control at 375 g/ha,"[2]; Myosoton aquaticum, 480 h, dosage 375 g/hm^2, read-out: actual fresh weight inhibition rate",38.5%
same,pest or weed control at 560 g/ha,"[2]; Myosoton aquaticum, 480 h, dosage 560 g/hm^2, read-out: actual fresh weight inhibition rate",57.3%
"Cc1nn(-c2cc(CC(Cl)C(=O)O)c(Cl)cc2F)c(=O)n1C(F)F (stereo not drawn) [carfentrazone, reference compound]",actual fresh weight inhibition rate (%),[1]; dosage 12 g/hm^2,55.2%
same,actual fresh weight inhibition rate (%),[1]; dosage 24 g/hm^2,71.3%
same,actual fresh weight inhibition rate (%),[1]; dosage 36 g/hm^2,80.5%
same,actual fresh weight inhibition rate (%),[2]; dosage 12 g/hm^2,32.1%
same,actual fresh weight inhibition rate (%),[2]; dosage 24 g/hm^2,45.8%
same,actual fresh weight inhibition rate (%),[2]; dosage 36 g/hm^2,60.1%
